We go through three compounds from paper PMC6040592 (Biochemistry, 2017).

Assay [1] concerns nine different rhomboid proteases. Briefly: Activity-based probe. It counts as binding. The note with it: 50 μM.
In assay [2] the target is T1, E. coli GlpG (Escherichia coli, UniProt P09391). Briefly: GlpG in vitro activity assay. The note with it: read-out: IC50 [μM] GlpG; inhibitor preincubated 30 min at 37 °C, Gurken substrate, 90 min. The format is biochemical.
A further assay deals with bovine chymotrypsin (Bos taurus, UniProt P00766). Particulars: read-out: IC50 α-chymotrypsin, value reported in the literature; cited from earlier work.
Another assay relates to rhomboids. The note with it: read-out: IC50 against rhomboids; isocoumarins; cited from earlier work.
The next assay concerns the target GlpG (Escherichia coli, UniProt P09391). Particulars: 1 h preincubation at 10 times IC50, 100-fold dilution, 100 min.
In another assay the target is wild-type GlpG (Escherichia coli, UniProt P09391). The note with it: 50 μM inhibitor, 23 °C overnight.
wild-type GlpG, sequence (P09391 whole entry): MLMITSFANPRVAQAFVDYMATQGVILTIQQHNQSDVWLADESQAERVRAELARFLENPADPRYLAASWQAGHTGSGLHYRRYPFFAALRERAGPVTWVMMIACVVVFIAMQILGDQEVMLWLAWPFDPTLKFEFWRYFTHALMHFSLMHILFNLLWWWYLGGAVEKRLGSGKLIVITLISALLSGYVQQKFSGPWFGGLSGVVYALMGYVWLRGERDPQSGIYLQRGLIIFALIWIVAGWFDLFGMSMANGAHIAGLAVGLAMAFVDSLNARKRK
The target of the next assay is HiGlpG (Haemophilus influenzae, UniProt P44783). Briefly: Activity-based probe. Particulars: 50 μM.
HiGlpG, sequence (P44783 whole entry): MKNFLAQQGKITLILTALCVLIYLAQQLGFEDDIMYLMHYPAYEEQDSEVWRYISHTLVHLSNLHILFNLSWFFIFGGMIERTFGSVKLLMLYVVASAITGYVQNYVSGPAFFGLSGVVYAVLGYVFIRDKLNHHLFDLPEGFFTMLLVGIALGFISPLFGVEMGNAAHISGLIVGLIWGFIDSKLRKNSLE
Assay [3] addresses T1, E. coli GlpG.
The target in assay [4] is neutrophil elastase, ELA2 (Homo sapiens, UniProt P08246). Particulars: same concentration range in which GlpG is inhibited.
neutrophil elastase, ELA2, sequence (P08246 30-267): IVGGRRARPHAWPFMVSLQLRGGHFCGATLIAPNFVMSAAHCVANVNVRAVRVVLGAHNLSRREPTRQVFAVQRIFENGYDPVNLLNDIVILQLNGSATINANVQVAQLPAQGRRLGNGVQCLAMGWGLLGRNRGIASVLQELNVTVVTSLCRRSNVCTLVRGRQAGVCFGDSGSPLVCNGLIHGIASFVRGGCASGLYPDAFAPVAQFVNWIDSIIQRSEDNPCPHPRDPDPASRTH
For another assay, the system named is MjROM. As to the kind of experiment: Activity-based probe. Particulars: 50 μM.
The test system of a further assay is TmROM. Briefly: Activity-based probe. Particulars: 50 μM.
For assay [5], the system named is AaROM. As to the kind of experiment: AaROM in vitro activity assay. It counts as biochemical, Aquifex aeolicus.
A further assay addresses PsAarA (Providencia stuartii, UniProt P46116). Briefly: Activity-based probe. The note with it: 50 μM.
A further assay relates to VcROM. Briefly: Activity-based probe. The note with it: 50 μM.
Assay [6] relates to AaROM. Briefly: Activity-based probe. The note with it: 50 μM.

T1 sequence (P09391 whole entry): as the sequence (P09391 whole entry) above
GlpG, sequence (P09391 whole entry): as above
PsAarA, sequence (P46116 whole entry): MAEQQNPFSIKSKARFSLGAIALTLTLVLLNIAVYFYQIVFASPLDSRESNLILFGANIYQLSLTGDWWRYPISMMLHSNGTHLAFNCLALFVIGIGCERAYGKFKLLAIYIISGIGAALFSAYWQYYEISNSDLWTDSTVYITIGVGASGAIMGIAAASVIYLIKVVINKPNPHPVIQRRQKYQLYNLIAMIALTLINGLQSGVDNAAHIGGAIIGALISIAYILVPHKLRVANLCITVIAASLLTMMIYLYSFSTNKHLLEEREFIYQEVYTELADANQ

Regarding `O=c1oc(Cl)c(Cl)c2ccccc12` [DCI, dichloroisocoumarin], the “inhibition of the activity of all nine rhomboids” value in assay [1] is 80–100%. For the same compound, the half-inhibitory concentration (IC50) on E. coli GlpG [2] is 19 µM; at bovine chymotrypsin it was 2.8 µM.

In the case of `COc1oc(=O)c2cc(N)ccc2c1Cl` [JLK-6, reference compound], in the assay on rhomboids, the concentration for half-maximal inhibition (IC50) is roughly 6 µM. In addition, the “recovery of GlpG activity after rapid dilution” value at GlpG was “No recovery of enzyme activity”.

With `O=C(OCN1C(=O)c2ccccc2S1(=O)=O)c1ccccc1Cl` [BSc5195], on wild-type GlpG, the “mass shift of inhibitor-GlpG adduct” value was found to be 195 Da. At HiGlpG, the “inhibition of ABP labelling, HiGlpG” value is given as “active”. Further, the “recovery of GlpG activity after rapid dilution” value on GlpG was “less but noticeable recovery of GlpG activity”. The “inhibition of ABP labelling, E. coli GlpG” value at E. coli GlpG [3] is on record as “active”. For the same compound, the “inhibition of neutrophil elastase, ELA2” value in assay [4] is “appreciable inhibition”. Further, the “inhibition of ABP labelling, MjROM” value in the assay on MjROM is “active”. Further, the “inhibition of ABP labelling, TmROM” value with TmROM is listed as “only partially inhibited”. The “fold lower potency toward AaROM in comparison to GlpG” value in the assay on AaROM [5] is reported as “approximately 100 fold”. Moreover, the “inhibition of ABP labelling, PsAarA” value at PsAarA is on record as “active”. The “inhibition of ABP labelling, VcROM” value with VcROM is “active”. Further, the “inhibition of ABP labelling, AaROM” value in the assay with AaROM [6] is listed as “only partially inhibited”.
